The record followed here is PubChem BioAssay (NCI).

Assay in all cases: inhibition of tumour cell growth, NCI panel, 48 h
For assay [1], the system named is HCC-2998 colon.
Assay [2] has as its system HCT-116 colon.
The subject of assay [3] is LOX IMVI melanoma.
The subject of assay [4] is NCI/ADR-RES ovarian.
The test system of assay [5] is OVCAR-4 ovarian.
Assay [6] concerns PC-3 prostate.
The test system of assay [7] is RPMI-8226 leukemia.
Assay [8] deals with SNB-19 CNS.
Assay [9] has as its system SW-620 colon.
In assay [10] the test system is U251 CNS.
Assay [11] relates to UACC-62 melanoma.
Assay [12] has as its system HL-60(TB) leukemia.
Assay [13] has as its system SK-MEL-5 melanoma.
Assay [14] has as its system UO-31 renal.

The structures appear in SMILES notation. Values joined by “and” are separate entries in the source; they are usually repeats but may differ in a detail not shown here. Equal values may be shown once.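 Following 48 hours of exposure in 96-well plates, responses at five concentrations were used to interpolate endpoints linearly. Abbreviation: GI50, concentration required for 50% inhibition of growth. TGI denotes the concentration required for complete inhibition of growth.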 A value given as a limit tells only on which side of the number the result lay.

As for `CCN1CCC(O)(c2ccc(Oc3ccc(F)cc3)cc2)C(C(=O)c2ccc(Oc3ccc(F)cc3)cc2)C1` (configuration not stated), the TGI in assay [1] was determined as 23.6 µM; in [2], 27.4 µM; in assay [3], 25.9 µM; in [4], 30.1 µM; in [5], 29 µM; in assay [6] it was 26.4 µM. The TGI in assay [7] amounted to 8.03 µM; in assay [8], 29.6 µM; in assay [9] it was 30.3 µM; in assay [10], 30.1 µM; in [11] it was 28 µM.

With `CS(=O)(=O)c1nc(-c2cc3c(c(S(C)(=O)=O)n2)CCCC3)cc2c1CCCCC2`, the TGI in [2], in [12], in assay [4], in [5], in assay [6] and in assay [7] was greater than 100 µM each time. Also, the TGI in assay [13], in [8], in assay [9], in assay [10] and in assay [11] was greater than 100 µM each time.

For `CN1C/C(=C\c2cccs2)C(O)/C(=C/c2cccs2)C1` (configuration not stated), the TGI in [1], in assay [2], in assay [3], in assay [4], in [5] and in [6] was greater than 100 µM throughout. Further, the TGI was 89.9 µM in assay [7]; greater than 100 µM in assay [13]; greater than 100 µM in assay [8]; greater than 100 µM in assay [9]; greater than 100 µM in [10]; greater than 100 µM in [11]. The TGI in [14] is greater than 100 µM.

Regarding `CCOC(=O)C1=C(O)C2C3CC4C2C(O)=C(C(=O)OCC)C2C1C3C42` (configuration not stated), the TGI in [2] was greater than 100 µM; in assay [12] it was greater than 100 µM; in [3], greater than 100 µM; in [4], 35.2 µM; in assay [5], greater than 100 µM; in assay [6], greater than 100 µM. For the same compound, the TGI in assay [7], in [13], in assay [8], in assay [9], in [10] and in [11] was greater than 100 µM in each case. The compound also displayed a TGI in [14] greater than 100 µM.

As for `CO/N=C(/C)c1cccc(Nc2nc3ccccc3c3[nH]c4ccccc4c23)c1`, the TGI turned out to be 14 µM in [2]; 53.3 µM in assay [12]; 25 µM in assay [3]; 25.1 µM in [4]; 22.3 µM in [6]; 18.2 µM in [13]. The TGI in assay [8] came to 26.7 µM; in [9], 27.5 µM; in assay [10] it was 30.9 µM; in [11] it was 19.3 µM; in [14], 22.1 µM.

With `CCOC(=O)c1[nH]c(Br)c(-c2ccc(OC)c(OC)c2)c1Br`, the TGI in [2] was 13.7 µM; in [12], 1.99 µM; in [4], greater than 100 µM; in assay [6] it was 23.7 µM; in assay [7], 16.6 µM; in assay [13] it was 4.3 µM and 6.5 µM. Further, the TGI in assay [8] came out at 17.6 µM; in assay [9], 38.1 µM; in assay [10], 1.44 µM; in assay [11] it was 22 µM; in [14], 9.96 µM. Moreover, the values for the GI50 in [6], in [13] and in assay [8] were 0.0112 µM, 0.0339 µM and 0.0137 µM, respectively.

For `CC1=NC2=Nc3nc(C)cc[n+]3CN2C=C1`, the TGI in [1], in assay [2], in assay [3], in [4], in assay [5] and in [6] was greater than 100 µM throughout. Besides, the TGI was 67.5 µM in assay [7]; greater than 100 µM in assay [13]; greater than 100 µM in [8]; greater than 100 µM in assay [9]; greater than 100 µM in assay [10]; greater than 100 µM in [11]. In [14], this compound registered a TGI greater than 100 µM.

As to `Cn1c2ccccc2c2c3c(c4c5ccccc5n(C)c4c21)C(=O)NC3=O`, the TGI in [1] is greater than 100 µM; in assay [2], greater than 100 µM; in [3], greater than 100 µM; in assay [4], greater than 100 µM; in assay [5], 28.6 µM; in assay [6] it was greater than 77.5 µM. Moreover, the TGI in assay [7] is greater than 100 µM; in assay [13] it was greater than 100 µM; in [8], 49.6 µM; in assay [9], greater than 100 µM; in assay [10], greater than 51.5 µM; in [11] it was greater than 89.6 µM. Also, in [14], the TGI was greater than 100 µM.

In the case of `O=C(OC1C2OC(=O)c3cc(O)c(O)c(O)c3Oc3cc4c(c(O)c3O)-c3c(cc(O)c(O)c3O)C(=O)OCC3OC(O)C(OC(=O)c5cc(O)c(O)c(O)c5Oc5cc6c(c(O)c5O)-c5c(cc(O)c(O)c5O)C(=O)OC1C(COC6=O)OC2O)C(OC(=O)c1cc(O)c(O)c(O)c1)C3OC4=O)c1cc(O)c(O)c(O)c1` (configuration not stated), the TGI in assay [2] was 57.2 µM; in assay [12] it was 44.4 µM; in assay [3] it was 59.7 µM; in assay [4], greater than 100 µM; in assay [5], 47.8 µM; in assay [6] it was 87.7 µM. In addition, the TGI in [7] is 50.1 µM; in assay [13] it was greater than 100 µM; in assay [8], 51.6 µM; in assay [9], 40.5 µM; in assay [11], 68.5 µM; in assay [14], greater than 100 µM.

`C=CCC1CC(n2cc(C)c(=O)[nH]c2=O)OC1CO[Si](C)(C)C(C)(C)C` (configuration not stated): the TGI was 35.5 µM in assay [1]; 24.6 µM in [2]; 26.2 µM in assay [3]; 31.5 µM in assay [4]; 28.5 µM in assay [5]; 25.1 µM in assay [6]. In addition, the TGI worked out at 47.5 µM in [7]; 29.9 µM in assay [13]; 30.2 µM in assay [8]; 31.9 µM in [9]; 29.6 µM in assay [10]; 31.7 µM in [11]. This compound also gave a TGI in [14] of 24.9 µM.

For `CN(C(=O)Cc1ccccc1)n1cnn(CC(=O)OC(C)(C)C)c1=S`, the TGI in assay [1], in assay [2], in assay [3], in [4], in [5] and in assay [6] was greater than 10 µM in each case. Further, the TGI in assay [7], in [13], in [8], in assay [9], in assay [10] and in [11] was greater than 10 µM throughout. The compound further registered a TGI in assay [14] greater than 10 µM.
